“And” between values parts separate entries of the source, which are not always exact repeats. Equal entries are not always repeated.
What was measured:
Assay type in all cases: in vivo
C. neoformans strain H99 [1] = assay: Trial 3: survival of C. neoformans-infected mice
Experimental: (§1) Animals were dosed once or twice daily as stated in Table 3 following daily body weight measurements. 5 mice were used per treatment group and a group of 5 infected, untreated mice was used as a control. […] Fluconazole, where indicated, was dosed either alone or in combination at 25 mg/kg/day in two doses by oral gavage. Agent administration began 72 hours following infection and continued once daily for 28 consecutive days.
Survival and brain studies for each of the three trials were used to determine antifungal efficacy. Mortality was recorded throughout each of the three trials. The animals were necropsied at death and the brain was removed aseptically, weighed, and homogenized in 1 milliliter sterile water. The microbiological response to antifungal treatment was evaluated by concentration (in CFU per gram) of C. neoformans in brain tissue. Serial dilutions using sterile PBS of homogenized brain were plated in duplicate onto YPD agar plates. Culture plates were incubated at 37° C. for 48 hours, after which the CFU were counted and the number of CFU per gram of brain tissue was calculated. The method was sensitive for detection of >10 CFU/g. The culture-negative plates were counted as having 0 CFU/g.

C. neoformans strain H99 [2] = assay: Trial 2: survival of C. neoformans-infected mice; conditions: oral 250 mg/kg/day in drinking water
Experimental: Mice were inoculated with C. neoformans, strain H99/ATCC 208821, (American Type Culture Collection, Rockville, Md.), which was prepared as follows. Cells from a C. neoformans suspension were streaked onto yeast extract peptone dextrose (YPD) agar plates, which were then incubated at 37° C. for 48 hours. A well-separated colony was resuspended in 25 milliliters YPD broth containing chloramphenicol and incubated in a flask on a shaking incubator at 37° C. overnight. The cells were recovered by centrifugation at 4,000 rpm for 5 minutes and washed two times in phosphate-buffered saline (PBS) by resuspension and centrifugation. Challenge organisms were quantified by hemocytometry and were diluted with PBS to a final concentration of 10^5 organisms per milliliter. The viable count was confirmed by serially diluting the C. neoformans suspension and plating the inoculum onto YPD agar plates. […]
Survival and brain studies for each of the three trials were used to determine antifungal efficacy. Mortality was recorded throughout each of the three trials. […] The microbiological response to antifungal treatment was evaluated by concentration (in CFU per gram) of C. neoformans in brain tissue. […] Culture plates were incubated at 37° C. for 48 hours, after which the CFU were counted and the number of CFU per gram of brain tissue was calculated. […] The culture-negative plates were counted as having 0 CFU/g. […]

C. neoformans strain H99 [3] = assay: Trial 3: CFU per gram of brain tissue at death; conditions: PO BID 25 mg/kg/day, individual mice 1-5
Experimental: as §1
Survival and brain studies for each of the three trials were used to determine antifungal efficacy. Mortality was recorded throughout each of the three trials. The animals were necropsied at death and the brain was removed aseptically, weighed, and homogenized in 1 milliliter sterile water. The microbiological response to antifungal treatment was evaluated by concentration (in CFU per gram) of C. neoformans in brain tissue. Serial dilutions using sterile PBS of homogenized brain were plated in duplicate onto YPD agar plates. Culture plates were incubated at 37° C. for 48 hours, after which the CFU were counted and the number of CFU per gram of brain tissue was calculated. The method was sensitive for detection of >10 CFU/g. The culture-negative plates were counted as having 0 CFU/g. […]

SMILES: Nc1[nH]c(=O)ncc1F [5-Flucytosine]
- Median survival (C. neoformans strain H99 [1]; oral 250 mg/kg/day in water): 47 days
- Median survival (C. neoformans strain H99 [2]): 34 days

SMILES: OC(Cn1cncn1)(Cn1cncn1)c1ccc(F)cc1F [Fluconazole]
- Median survival (C. neoformans strain H99 [1]; PO BID 25 mg/kg/day): 53 days
- Number of CFU/g of Brain (C. neoformans strain H99 [3]): 4,200,000 CFU/g and 4,300,000 CFU/g and 3,900,000 CFU/g and 6,800,000 CFU/g and 11,300,000 CFU/g
